Reference: PMC6361133, “A chemical-genetics approach to study the role of atypical Protein Kinase C in Drosophila” (Development (Cambridge, England), 2019)

Target: atypical Protein Kinase C (aPKC), analogue-sensitive aPKC^as4 (Drosophila melanogaster, UniProt A1Z9X0, I342A/T405A)
Experiment: in vitro […]-ATP peptide kinase assay with immunoprecipitated FLAG-aPKC ([…] ATP, […] MgCl2)
Format: biochemical

atypical Protein Kinase C (aPKC), analogue-sensitive aPKC^as4, sequence (A1Z9X0 whole entry I342A/T405A): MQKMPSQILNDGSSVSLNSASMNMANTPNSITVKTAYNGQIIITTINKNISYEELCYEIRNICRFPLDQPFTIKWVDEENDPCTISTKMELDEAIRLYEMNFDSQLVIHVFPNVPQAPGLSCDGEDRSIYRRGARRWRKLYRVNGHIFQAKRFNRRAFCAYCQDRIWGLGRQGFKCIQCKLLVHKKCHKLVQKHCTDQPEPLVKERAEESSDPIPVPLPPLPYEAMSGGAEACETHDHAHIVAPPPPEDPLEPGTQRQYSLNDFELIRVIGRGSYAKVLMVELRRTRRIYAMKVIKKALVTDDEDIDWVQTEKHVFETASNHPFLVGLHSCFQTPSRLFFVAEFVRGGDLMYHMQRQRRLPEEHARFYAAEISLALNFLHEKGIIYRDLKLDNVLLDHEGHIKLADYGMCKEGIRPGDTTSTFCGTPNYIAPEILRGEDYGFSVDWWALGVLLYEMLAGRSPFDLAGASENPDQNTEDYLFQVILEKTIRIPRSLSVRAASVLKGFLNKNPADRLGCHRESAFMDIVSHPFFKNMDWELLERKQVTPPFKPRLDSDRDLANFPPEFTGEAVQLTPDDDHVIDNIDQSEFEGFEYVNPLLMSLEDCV

Molecule `CC(C)(C)n1nc(-c2cccc3ccccc23)c2c(N)ncnc21` [1NA-PP1] has an IC50 of roughly 0.1 µM.
